Laboratory results taken from patent US4755594A, “N^6 -substituted adenosines” (Warner-Lambert Company, priority 1986, dated 1988).

Tests used:
adenosine A1 receptor = target: T1, adenosine A1 receptor (Rattus norvegicus, UniProt P25099); assay: Adenosine Receptor Binding--A1 Receptor Affinity (RBA1), [3H]-CHA, whole brain membranes; settings: read-out: RBA-1 IC50
T1 construct: Whole brain minus cerebellum and brainstem from male Long-Evans rats; from tissue; host or cells: whole brain minus cerebellum and brainstem, male Long-Evans rats
T1 sequence (P25099 1-326): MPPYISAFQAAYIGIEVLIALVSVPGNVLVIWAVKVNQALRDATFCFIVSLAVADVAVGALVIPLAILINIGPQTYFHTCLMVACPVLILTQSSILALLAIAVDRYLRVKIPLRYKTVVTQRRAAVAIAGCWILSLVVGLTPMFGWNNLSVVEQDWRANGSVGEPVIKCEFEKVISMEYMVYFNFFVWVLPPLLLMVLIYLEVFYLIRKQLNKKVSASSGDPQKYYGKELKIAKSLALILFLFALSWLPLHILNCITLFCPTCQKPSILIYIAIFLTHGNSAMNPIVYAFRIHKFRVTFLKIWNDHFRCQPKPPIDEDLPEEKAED
Method: Adenosine Receptor Binding--A1 Receptor Affinity (RBA1 )
Whole brain minus cerebellum and brainstem from male Long-Evans rats (150-200 g) was homogenized in 30 volumes of ice-cold 0.05M Tris-HCl buffer pH 7.7 using a Brinkman Polytron PT-10, (setting number 6 for 20 seconds) and centrifuged for ten minutes at 20,000 xg (Sorvall RC-2), 4° C. The supernatant was discarded, and the pellet was resuspended and centrifuged as before. The pellet was resuspended in 20 ml Tris-HCl buffer containing two International Units/ml of adenosine deaminase (Sigma type III from calf intestinal mucosa), incubated at 37° C. for 30 minutes, then subsequently at 0° C. for ten minutes. The homogenate was again centrifuged, and the final pellet was resuspended in ice-cold 0.05M Tris-HCl buffer pH 7.7 to a concentration of 20 mg/ml original wet tissue weight and used immediately.
Tissue homogenate (10 mg/ml) was incubated in 0.05M Tris-HCl buffer pH 7.7 containing 1.0 nM [^3 H]--N^6 -cyclohexyladenosine ([^3 H]--CHA) with or without test agents in triplicate for one hour at 25° C. Incubation volume was 2 ml. Unbound [^3 H]--CHA was separated by rapid filtration under reduced pressure through Whatman glass fiber (GF/B) filters. The filters were rinsed three times with 5 ml of ice cold 0.05M Tris-HCl buffer pH 7.7. The radio-labeled ligand retained on the filter was measured by liquid scintillation spectrophotometry after shaking the filters for one hour or longer on a mechanical shaker in 10 ml of Beckman Ready-Solv HP scintillation cocktail.
Nonspecific binding was defined as the binding which occurred in the presence of 1 mM theophylline. The concentration of test agent which inhibited 50% of the specific binding (IC50) was determined by nonlinear computer curve fit. The Scatchard plot was calculated by linear regression of the line obtained by plotting the amount of radioligand bound (pmoles/gram of tissue) [formula] Since the amount of radioligand bound was a small fraction of the total amount added, free radioligand was defined as the concentration of (nM) of radioligand added to the incubation mixture. The Hill coefficient was calculated by linear regression of the line obtained by plotting the log of the bound radioligand vs the log of the [formula] The maximal number of binding sites (Bmax) was calculated from the Scatchard plot.

adenosine A2 receptor = target: T2, adenosine A2 receptor (Rattus norvegicus, UniProt P30543); assay: Adenosine Receptor Binding--A2 Receptor Affinity (RBA2), [3H]NECA, striatal membranes; settings: read-out: RBA-2 IC50
T2 construct: Brains were thawed and then kept on ice while the striata were dissected out; tissue Pel-Freez (Rogers, Ark.); host or cells: striata of Sprague-Dawley rats (Long-Evans hooded rats gave essentially identical results)
Method: Adenosine Receptor Binding--A2 Receptor Affinity (RBA2)
Brains from 200-500 g mixed sex Sprague-Dawley rats were purchased from Pel-Freez (Rogers, Ark.). Fresh brains from male Long-Evans hooded rats (Blue Spruce Farms, Altamont, NY) gave essentially identical results. Brains were thawed and then kept on ice while the striata were dissected out. Striata were disrupted in 10 vol of ice-cold 50 mM Tris.HCl (pH 7.7 at 25° C., pH 8.26 at 5° C.) (Tris) for 30 seconds in a Polytron PT-10 (Brinkmann) at setting 5. The suspension was centrifuged at 50,000 xg for ten minutes, the supernatant discarded, the pellet resuspended in 10 vol ice-cold Tris as above, recentrifuged, resuspended at 1 g/5ml, and stored in plastic vials at -70° C. (stable for at least six months). When needed, tissue was thawed at room temperature, disrupted in a Polytron, and kept on ice until used.
All incubations were for 60 minutes at 25° C. in 12×75 mm glass tubes containing 1 ml Tris with 5 mg original tissue weight of rat weight of rat striatal membranes, 4 nM [^3 H]--N-ethyl adenosine-5'-carboxamide ([^3 H]NECA), 50 nM N^6 -cyclopentyladenosine (to eliminate A1 receptor binding), 10 mM MgCl2, 0.1 units/ml of adenosine deaminase and 1% dimethylsulfoxide. N^6 -Cyclopentyladenosine was dissolved at 10 mM in 0.02N HCl and diluted in Tris. Stock solutions and dilutions of N^6 -cyclopentyladenosine could be stored at -20° C. for several months. Test compounds were dissolved at 10 mM in dimethylsulfoxide on the same day as the experiment, and diluted in dimethylsulfoxide to 100×the final incubation concentration. Control incubations received an equal volume (10 μl) of dimethylsulfoxide; the resulting concentration of dimethylsulfoxide had no effect on binding. [^3 H]NECA was diluted to 40 nM in Tris. The membrane suspension (5 mg/0.79 ml) contained sufficient MgCl2 and adenosine deaminase to give 10 mM and 0.1 units/ml, respectively, final concentration in the incubation. […] After all additions, the rack of tubes was vortexed, and the tubes were then incubated for 60 min at 25° C. in a shaking water bath. The rack of tubes was vortexed an additional time halfway through the incubation.
Incubations were terminated by filtration through 2.4 cm GF/B filters under reduced pressure. Each tube was filtered as follows: the contents of the tube were poured on the filter, 4 ml of ice-cold Tris were added to the tube and the contents poured onto the filter, and the filter was washed twice with 4 ml of ice-cold Tris. The filtration was complete in about twelve seconds. Filters were put in scintillation vials, 8 ml of Formula 947 scintillation fluid added, and the vials left overnight, shaken, and counted in a liquid scintillation counter at 40% efficiency.
Nonspecific binding was defined as binding in the presence of 100 μM N^6 -cyclopentyladenosine, and specific binding was defined as total binding minus nonspecific binding. The IC50 was calculated by weighted nonlinear least squares curve-fitting to the mass-action equation. [formula] where Y is cpm bound
T is cpm total binding without drug
S is cpm specific binding without drug
D is the concentration of drug and
K is the IC50 of the drug
Weighting factors were calculated under the assumption that the standard deviation was proportional to the predicted value of Y. Nonspecific binding was treated as a very large (infinite) concentration of drug in the computer analysis.

[1] = Activity and screen test, rat orally: inhibition of motor activity; assay type: in vivo; settings: orally (PO)
[2] = Activity and screen test, rat orally: screen test; assay type: in vivo; settings: orally (PO)
Method: A two part testing procedure is started one hour postinjection. First, the screen test (ST) is performed (see Pharmac. Biochem. Behav. 6, 351-353, 1977). Briefly this test consists of placing mice on individual wire screens which are then rotated 180 degrees at the start of a 60 second observation period. The number of mice falling off the inverted screen is recorded.
The data obtained from the screen test are expressed as percent of mice falling off the screen. Data derived from locomotor activity of drug treated mice are compared to the activity of vehicle treated animals and are expressed as percent inhibition of spontaneous locomotion. All percentages reported for inhibition of locomotion (LI) are based upon data accumulated for one hour. Both phases of testing are graded: A=60-100%; C=31-59%; and N=0-30%. An overall dose rating is obtained by the following criteria: […]

T2 sequence (P30543 whole entry): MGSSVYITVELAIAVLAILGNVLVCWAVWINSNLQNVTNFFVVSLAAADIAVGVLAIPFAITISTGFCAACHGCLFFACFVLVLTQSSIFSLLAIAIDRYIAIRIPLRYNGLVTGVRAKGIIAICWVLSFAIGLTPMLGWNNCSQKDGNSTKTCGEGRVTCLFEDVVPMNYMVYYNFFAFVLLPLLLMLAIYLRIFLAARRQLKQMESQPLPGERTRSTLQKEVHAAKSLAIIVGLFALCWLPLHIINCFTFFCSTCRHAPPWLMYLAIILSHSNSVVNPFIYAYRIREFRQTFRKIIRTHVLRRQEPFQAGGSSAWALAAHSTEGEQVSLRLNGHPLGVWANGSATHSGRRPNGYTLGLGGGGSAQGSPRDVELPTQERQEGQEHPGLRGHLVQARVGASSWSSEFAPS

IC50 (adenosine A1 receptor): 6.5 µM
IC50 (adenosine A2 receptor): 35 µM
Inhibition of screen test failure ([2]; 1 mg/kg): 11%
Inhibition of screen test failure ([2]; 3 mg/kg): 0%
Inhibition of screen test failure ([2]; 10 mg/kg): 0%
Structure (SMILES): [O-][n+]1cnc2c(ncn2[C@@H]2O[C@H](CO)[C@@H](O)[C@H]2O)c1NCC1(c2ccccc2)CC1 [Example 4, N6-((1-Phenylcyclopropyl)methyl)adenosine-N1-oxide]
Inhibition of motor activity ([1]; 1 mg/kg): 2%
Inhibition of motor activity ([1]; 3 mg/kg): 15%
Inhibition of motor activity ([1]; 10 mg/kg): 2%
